Results: US20190225650A1, “PEPTIDOMIMETIC MACROCYCLES AND USE THEREOF IN REGULATING HIF1ALPHA” (AILERON THERAPEUTICS, INC., priority 2013, published 2019)
Bridge positions count the residues as written; N and C are the ends. Square brackets hold non-standard residues; d marks the D form. Peptide text beside a SMILES is read from it. S5 = C=CCCC[C@](C)(N)C(=O)O; Nle = CCCC[C@H](N)C(=O)O; Dap = NC[C@H](N)C(=O)O

Tested on: HRE-bla ME-180 cells
Experiment: Reporter gene assay (HRE-bla ME-180 HIF reporter, GeneBLAzer)
Format: cell-based, human
Conditions: for EC50: 24 hour normoxia
Procedure, shortened: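 A FRET β-lactamase readout of HIF transcription was used. After compound treatment in 0.3% DMSO/media under normoxic conditions, 20 μl of 6× LiveBLAzer-FRET B/G (CCF4-AM) substrate was added. Plates sat 3 hr at room temperature in the dark and were read at 409 Ex/460Em and 409Ex/530Em on a Synergy 2. Inhibition was compared against DMSO vehicle controls, with chetomin as positive control.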

Compound	EC50	18 h Avg % max inhibition at top conc (HIF Rptr-24 hrs normoxia) (μM)
CCCC[C@H](NC(=O)[C@H](CC(C)C)NC(=O)[C@@H](NC(=O)[C@H](CCC(=O)O)NC(=O)[C@H](CCC(=O)O)NC(=O)[C@H](CC(=O)O)NC(=O)[C@H](CCC(=O)O)NC(=O)[C@H](Cc1ccccc1)NC(C)=O)C(C)C)C(=O)N[C@@]1(C)CCCC=CCCC[C@@](C)(C(=O)N[C@@H](CCCC)C(=O)N[C@@H](C)C(=O)N[C@@H](CC(C)C)C(=O)N[C@@H](CC(=O)O)C(=O)N[C@@H](CCCNC(=N)N)C(=O)N[C@H](C(N)=O)[C@@H](C)CC)NC(=O)[C@H]([C@@H](C)CC)NC(=O)[C@H](C(C)C)NC(=O)[C@H](CC(C)C)NC1=O [SP-31] (Ac-FEDEEVL[Nle][S5]LVI[S5][Nle]ALDRI-NH2; staple 9-13)	> 30 µM	+ (<10: +)
CCCC[C@H](NC(=O)[C@H](CC(C)C)NC(=O)[C@H](CC(=O)O)NC(=O)[C@H](CCC(=O)O)NC(=O)[C@H](CCC(=O)O)NC(=O)[C@H](CC(=O)O)NC(=O)[C@@H](NC(=O)[C@H](Cc1ccccc1)NC(C)=O)[C@@H](C)CC)C(=O)N[C@@]1(C)CCCC=CCCC[C@@](C)(C(=O)N[C@@H](CCCC)C(=O)N[C@@H](C)C(=O)N[C@@H](CC(C)C)C(=O)N[C@@H](CC(=O)O)C(=O)N[C@@H](CCCNC(=N)N)C(=O)N[C@H](C(N)=O)[C@@H](C)CC)NC(=O)[C@H]([C@@H](C)CC)NC(=O)[C@H](C(C)C)NC(=O)[C@H](CC(C)C)NC1=O [SP-32] (Ac-FIDEEDL[Nle][S5]LVI[S5][Nle]ALDRI-NH2; staple 9-13)	15 to 30 µM	+++ (≤25 but <50: +++)
CCCC[C@H](NC(=O)[C@H](CC(C)C)NC(=O)[C@@H](NC(=O)[C@H](CCC(=O)O)NC(=O)[C@H](CCC(=O)O)NC(=O)[C@H](CC(=O)O)NC(=O)[C@@H](NC(=O)[C@H](Cc1ccccc1)NC(C)=O)[C@@H](C)CC)C(C)C)C(=O)N[C@@]1(C)CCCC=CCCC[C@@](C)(C(=O)N[C@@H](CCCC)C(=O)N[C@@H](C)C(=O)N[C@@H](CC(C)C)C(=O)N[C@@H](C)C(=O)N[C@@H](CCCNC(=N)N)C(=O)N[C@H](C(N)=O)[C@@H](C)CC)NC(=O)[C@H]([C@@H](C)CC)NC(=O)[C@H](C(C)C)NC(=O)[C@H](CC(C)C)NC1=O [SP-23] (Ac-FIDEEVL[Nle][S5]LVI[S5][Nle]ALARI-NH2; staple 9-13)	5 to 15 µM	++++ (≥50: ++++)
CCCC[C@H](NC(=O)[C@H](CC(C)C)NC(=O)[C@@H](NC(=O)[C@H](CCC(=O)O)NC(=O)[C@H](CCC(=O)O)NC(=O)[C@H](CC(=O)O)NC(=O)[C@@H](NC(=O)[C@H](Cc1ccccc1)NC(C)=O)[C@@H](C)CC)C(C)C)C(=O)N[C@@]1(C)CCCC=CCCC[C@@](C)(C(=O)N[C@@H](CCCC)C(=O)NCC(=O)N[C@@H](CC(C)C)C(=O)N[C@@H](CC(=O)O)C(=O)N[C@@H](CCCNC(=N)N)C(=O)N[C@H](C(N)=O)[C@@H](C)CC)NC(=O)[C@H]([C@@H](C)CC)NC(=O)[C@H](C(C)C)NC(=O)[C@H](CC(C)C)NC1=O [SP-21] (Ac-FIDEEVL[Nle][S5]LVI[S5][Nle]GLDRI-NH2; staple 9-13)	5 to 15 µM	++++ (≥50: ++++)

Continued, in another order:

EC50	Compound	18 h Avg % max inhibition at top conc (HIF Rptr-24 hrs normoxia) (μM)
15 to 30 µM	CCCC[C@H](NC(=O)[C@H](CC(C)C)NC(=O)[C@@H](NC(=O)[C@H](CCC(=O)O)NC(=O)[C@H](CCC(=O)O)NC(=O)[C@H](CC(=O)O)NC(=O)[C@@H](NC(=O)[C@H](Cc1ccccc1)NC(C)=O)[C@@H](C)CC)C(C)C)C(=O)N[C@@]1(C)CCCC=CCCC[C@@](C)(C(=O)N[C@@H](CCCC)C(=O)N[C@@H](CCC(=O)O)C(=O)N[C@@H](CC(C)C)C(=O)N[C@@H](CC(=O)O)C(=O)N[C@@H](CCCNC(=N)N)C(=O)N[C@H](C(N)=O)[C@@H](C)CC)NC(=O)[C@H]([C@@H](C)CC)NC(=O)[C@H](C(C)C)NC(=O)[C@H](CC(C)C)NC1=O [SP-39] (Ac-FIDEEVL[Nle][S5]LVI[S5][Nle]ELDRI-NH2; staple 9-13)	+++ (≤25 but <50: +++)
> 30 µM	CCCC[C@H](NC(=O)[C@H](CC(C)C)NC(=O)[C@@H](NC(=O)[C@H](CCC(=O)O)NC(=O)[C@H](CCC(=O)O)NC(=O)[C@H](CN)NC(=O)[C@@H](NC(=O)[C@H](Cc1ccccc1)NC(C)=O)[C@@H](C)CC)C(C)C)C(=O)N[C@@]1(C)CCCC=CCCC[C@@](C)(C(=O)N[C@@H](CCCC)C(=O)N[C@@H](C)C(=O)N[C@@H](CC(C)C)C(=O)N[C@@H](CC(=O)O)C(=O)N[C@@H](CCCNC(=N)N)C(=O)N[C@H](C(N)=O)[C@@H](C)CC)NC(=O)[C@H]([C@@H](C)CC)NC(=O)[C@H](C(C)C)NC(=O)[C@H](CC(C)C)NC1=O [SP-62] (Ac-FI[Dap]EEVL[Nle][S5]LVI[S5][Nle]ALDRI-NH2; staple 9-13)	++ (≤10 but <25: ++)
15 to 30 µM	CCCC[C@H](NC(=O)[C@H](CC(C)C)NC(=O)[C@@H](NC(=O)[C@H](CCC(=O)O)NC(=O)[C@H](CCC(=O)O)NC(=O)[C@H](CC(=O)O)NC(=O)[C@@H](NC(=O)[C@H](Cc1ccccc1)NC(C)=O)[C@@H](C)CC)C(C)C)C(=O)N[C@@]1(C)CCCC=CCCC[C@@](C)(C(=O)N[C@@H](CCC(=O)O)C(=O)N[C@@H](C)C(=O)N[C@@H](CC(C)C)C(=O)N[C@@H](CC(=O)O)C(=O)N[C@@H](CCCNC(=N)N)C(=O)N[C@H](C(N)=O)[C@@H](C)CC)NC(=O)[C@H]([C@@H](C)CC)NC(=O)[C@H](C(C)C)NC(=O)[C@H](CC(C)C)NC1=O [SP-38] (Ac-FIDEEVL[Nle][S5]LVI[S5]EALDRI-NH2; staple 9-13)	++++ (≥50: ++++)
> 30 µM	CCCC[C@H](NC(=O)[C@H](CC(C)C)NC(=O)[C@H](CN)NC(=O)[C@H](CCC(=O)O)NC(=O)[C@H](CCC(=O)O)NC(=O)[C@H](CC(=O)O)NC(=O)[C@@H](NC(=O)[C@H](Cc1ccccc1)NC(C)=O)[C@@H](C)CC)C(=O)N[C@@]1(C)CCCC=CCCC[C@@](C)(C(=O)N[C@@H](CCCC)C(=O)N[C@@H](C)C(=O)N[C@@H](CC(C)C)C(=O)N[C@@H](CC(=O)O)C(=O)N[C@@H](CCCNC(=N)N)C(=O)N[C@H](C(N)=O)[C@@H](C)CC)NC(=O)[C@H]([C@@H](C)CC)NC(=O)[C@H](C(C)C)NC(=O)[C@H](CC(C)C)NC1=O [SP-64] (Ac-FIDEE[Dap]L[Nle][S5]LVI[S5][Nle]ALDRI-NH2; staple 9-13)	+ (<10: +)
> 30 µM	CCCC[C@H](NC(=O)[C@H](CC(C)C)NC(=O)[C@@H](NC(=O)[C@H](CCC(=O)O)NC(=O)[C@H](CCC(=O)O)NC(=O)[C@H](CC(=O)O)NC(=O)[C@@H](NC(=O)[C@H](Cc1ccccc1)NC(C)=O)[C@@H](C)CC)C(C)C)C(=O)N[C@@]1(C)CCCC=CCCC[C@@](C)(C(=O)N[C@@H](CCCC)C(=O)N[C@@H](C)C(=O)N[C@@H](CC(C)C)C(=O)N[C@@H](CC(=O)O)C(=O)N[C@@H](CCCNC(=N)N)C(=O)N[C@H](C(N)=O)[C@@H](C)CC)NC(=O)[C@H]([C@@H](C)CC)NC(=O)[C@H](CCC(=O)O)NC(=O)[C@H](CC(C)C)NC1=O [SP-36] (Ac-FIDEEVL[Nle][S5]LEI[S5][Nle]ALDRI-NH2; staple 9-13)	+ (<10: +)
